Results: patent US10155775B2, “Substituted amino six-membered saturated heteroalicycles as long-acting DPP-IV inhibitors” (Centaurus Biopharma Co., Ltd., priority 2015, dated 2018)
Read-outs that look alike come from different tables or passages of the source. Blank lines part the entries; values can stand above or below the compound they belong to.

Assays:
[1] = Liver microsome metabolic stability (rat); format: in vitro ADME; conditions: rat liver microsomes, read-out: Half Life t1/2, liver microsome metabolic stability (converted)
Protocol: (§1) 8 μL human liver microsomes (20 mg/mL), 20 μL NADPH and 368 μL of 0.1 M phosphate buffer were mixed, and then pre-incubated at 37° C. for 5 minutes. 4 μL working solutions (test compounds or positive control) were added, respectively. When pre-incubated at 37° C., 50 μL incubation solutions were taken out at 0, 10, 20, 30, 45 and 60 minute, and thereto was added a 150 μL solution of internal standard ([…]) in acetonitrile. 4 μL rat liver microsomes (20 mg/mL), 10 μL NADPH and 184 μL of 0.1 M phosphate buffer were mixed, and then pre-incubated at 37° C. for 5 minutes. 2 μL working solutions (test compounds or positive control) were added, respectively. When pre-incubated at 37° C., 20 μL incubation solutions were taken out at 0, 10, 20, 30, 45 and 60 minute, and thereto was added a 180 μL solution of internal standard (0.25 M warfarin) in acetonitrile. All samples were vortexed and centrifuged at 4000 rpm for 15 min, and 150 μL supernatants were added to a 96-well plate, and then 5 μL supernatants were detected in LC/MS/MS system. Chromatographic column for analysis was C18 1.7 μm 2.1×50 mm (Waters). Triple quadrupole mass spectrometry (API4000, AB Company) was used in detection. A ratio of the peak area of CT-1225 to that of the internal standard was detected in positive ion mode. […]

[2] = Liver microsome metabolic stability (human); format: in vitro ADME; conditions: human liver microsomes, read-out: Half Life t1/2, liver microsome metabolic stability (converted)
Protocol: as §1

serum DPP-IV = serum DPP-IV (Mus musculus (Mouse), UniProt P28843); assay: in vivo; conditions: for response vs control in vivo at 30 mg/kg: po, read-out: Specific activity of DPP-IV
[3] = Measuring pharmacokinetics parameters in rats after intragastric administration; format: in vivo; conditions: male, plasma; rat, PO, 5 mg/kg, 20% sulfobutyl-β-cyclodextrin
Protocol: The pharmacokinetic parameters of compounds of the present application were determined by using the following method.
Healthy male adult rats (7-9 weeks old) were used in this study. Each group of animals (3 male rats) was intragastrically administered once at a single dose of 5 mg/kg. The animals in the intragastric administration group were fasted overnight before this study. The fasting time period was from 10 hours before administration to 4 hours after administration.
Blood samples were taken at 0.25, 0.5, 1, 2, 4, 6, 8 and 24 h after administration. The animals were anesthetized with isoflurane using an animal anesthesia machine, and then 0.3 mL whole blood samples were taken from the fundus venous plexus. The blood samples were placed in heparin anticoagulant tubes, and centrifuged for 5 min at 4° C. and 4000 rpm. The resulting plasmas were transferred to centrifuge tubes, and stored at −80° C. until analysis.
Verified LC-MS/MS method was used to analyze the plasma samples. Plasma concentration-time data of animals were analyzed using WinNonlin (Professional Edition, version 6.3; Pharsight Company) software. The non-compartmental model was introduced for concentration analysis.

CYP1A2 = CYP1A2 (Homo sapiens (Human), UniProt P05177); assay: IC50 of inhibiting CYP enzyme system, human liver microsomes; format: in vitro ADME; conditions: read-out: IC50 in inhibiting CYP Enzyme System 1A2
Protocol: (§2) IC50 values of compounds of the present application in inhibiting CYP enzyme system were determined by using the following method.
(§3) Human liver microsomes frozen at −80° C. in refrigerator were placed on ice for thawing, of which 100 μL was placed in a constant temperature oscillator for incubation (1 hour) at 60° C. and 100 rpm when immediately thawing, and the rest was frozen immediately in refrigerator at −80° C. After one hour, 100 μL inactivated liver microsomes were taken out, and thereto was added 400 μL phosphate buffer, and uniformly mixed to form a 4 mg/mL solution of inactivated liver microsomes. Meanwhile, human liver microsomes frozen at −80° C. in refrigerator were placed on ice for thawing, of which 100 μL was taken out when immediately thawing, and thereto was added 400 μL phosphate buffer, and uniformly mixed to form a 4 mg/mL solution of liver microsomes. The incubation mixtures for a positive control, test compounds and a negative control were prepared according to Table 3 below:
(§4) The above incubation mixtures were incubated for 5 minutes in a constant temperature oscillator at 37° C. and 100 rpm.
(§5) To 2.5 μL working solution of the test compounds or positive control (the negative control was added to the working solution of the test compounds) were added 91.5 μL the incubation mixtures and 6 μL NADPH solution, and then the reaction was initiated via vortex. The resulting solutions were incubated in a constant temperature oscillator at 37° C. and 100 rpm, and the incubation time was shown in Table 4 below:
(§6) Samples from the terminated reaction were centrifuged at 12000 rpm for 10 minutes, and supernatants were taken out for analysis.
(§7) Analyst 1.4.2 or equivalent software was used for data processing. Integrals were detected to ensure that all peaks were properly integrated, and if necessary, adjust integral parameters.
(§8) The quantification of an analyte was defined as a ratio of a peak area of the analyte to that of the internal standard.

CYP2B6 = CYP2B6 (Homo sapiens (Human), UniProt P20813); assay: as above; format: in vitro ADME; conditions: read-out: IC50 in inhibiting CYP Enzyme System 2B6
Protocol: as §2, §3, §4, §5, §6, §7, §8

CYP2C19 = CYP2C19 (Homo sapiens (Human), UniProt P33261); assay: as above; format: in vitro ADME; conditions: read-out: IC50 in inhibiting CYP Enzyme System 2C19
Protocol: as §2, §3, §4, §5, §6, §7, §8

CYP2C8 = CYP2C8 (Homo sapiens (Human), UniProt P10632); assay: as above; format: in vitro ADME; conditions: read-out: IC50 in inhibiting CYP Enzyme System 2C8
Protocol: as §2, §3, §4, §5, §6, §7, §8

CYP2C9 = CYP2C9 (Homo sapiens (Human), UniProt P11712); assay: as above; format: in vitro ADME; conditions: read-out: IC50 in inhibiting CYP Enzyme System 2C9
Protocol: as §2, §3, §4, §5, §6, §7, §8

CYP3A4 = CYP3A4 (Homo sapiens (Human), UniProt P08684); assay: as above; format: in vitro ADME
Protocol: as §2, §3, §4, §5, §6, §7, §8

CYP2D6 = CYP2D6 (Homo sapiens (Human), UniProt P10635); assay: biochemical; format: in vitro ADME; conditions: human liver microsomes; read-out: IC50 in inhibiting CYP Enzyme System 2D6
Protocol: as §2
as §3, with “below: […]” for “below:”
as §7, §8

serum DPP-IV, sequence (P28843 37-760): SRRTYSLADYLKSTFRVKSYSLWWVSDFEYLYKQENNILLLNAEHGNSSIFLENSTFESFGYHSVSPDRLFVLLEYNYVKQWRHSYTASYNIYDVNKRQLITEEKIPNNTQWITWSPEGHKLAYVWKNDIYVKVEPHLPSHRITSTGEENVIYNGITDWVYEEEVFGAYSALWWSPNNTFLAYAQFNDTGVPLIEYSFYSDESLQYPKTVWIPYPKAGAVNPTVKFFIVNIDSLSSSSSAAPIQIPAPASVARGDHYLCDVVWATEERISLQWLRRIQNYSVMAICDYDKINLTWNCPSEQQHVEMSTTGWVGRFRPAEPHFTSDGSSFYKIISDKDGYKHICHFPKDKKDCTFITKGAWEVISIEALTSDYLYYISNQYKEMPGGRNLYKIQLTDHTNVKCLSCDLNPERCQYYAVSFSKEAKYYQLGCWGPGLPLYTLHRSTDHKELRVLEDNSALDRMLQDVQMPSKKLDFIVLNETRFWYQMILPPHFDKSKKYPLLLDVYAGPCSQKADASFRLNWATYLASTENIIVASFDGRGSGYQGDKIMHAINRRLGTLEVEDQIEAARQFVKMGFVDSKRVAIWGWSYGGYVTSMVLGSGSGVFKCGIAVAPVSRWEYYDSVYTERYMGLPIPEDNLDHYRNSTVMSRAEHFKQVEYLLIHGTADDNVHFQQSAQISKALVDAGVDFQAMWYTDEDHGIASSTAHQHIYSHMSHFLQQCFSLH
CYP3A4, sequence (P08684 whole entry): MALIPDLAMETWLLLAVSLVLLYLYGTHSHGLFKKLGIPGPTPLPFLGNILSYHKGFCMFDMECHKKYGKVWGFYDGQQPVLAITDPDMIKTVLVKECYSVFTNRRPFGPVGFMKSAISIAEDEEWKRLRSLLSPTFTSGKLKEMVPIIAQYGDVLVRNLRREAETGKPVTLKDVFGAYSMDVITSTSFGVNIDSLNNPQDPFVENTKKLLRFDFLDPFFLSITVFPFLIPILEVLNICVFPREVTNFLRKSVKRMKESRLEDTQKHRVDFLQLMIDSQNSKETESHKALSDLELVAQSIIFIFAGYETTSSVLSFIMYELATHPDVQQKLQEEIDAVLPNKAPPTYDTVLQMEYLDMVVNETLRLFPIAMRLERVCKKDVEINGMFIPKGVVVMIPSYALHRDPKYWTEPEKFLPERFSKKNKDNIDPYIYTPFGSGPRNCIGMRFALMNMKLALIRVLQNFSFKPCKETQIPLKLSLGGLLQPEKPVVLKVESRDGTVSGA
CYP2C9, sequence (P11712 whole entry): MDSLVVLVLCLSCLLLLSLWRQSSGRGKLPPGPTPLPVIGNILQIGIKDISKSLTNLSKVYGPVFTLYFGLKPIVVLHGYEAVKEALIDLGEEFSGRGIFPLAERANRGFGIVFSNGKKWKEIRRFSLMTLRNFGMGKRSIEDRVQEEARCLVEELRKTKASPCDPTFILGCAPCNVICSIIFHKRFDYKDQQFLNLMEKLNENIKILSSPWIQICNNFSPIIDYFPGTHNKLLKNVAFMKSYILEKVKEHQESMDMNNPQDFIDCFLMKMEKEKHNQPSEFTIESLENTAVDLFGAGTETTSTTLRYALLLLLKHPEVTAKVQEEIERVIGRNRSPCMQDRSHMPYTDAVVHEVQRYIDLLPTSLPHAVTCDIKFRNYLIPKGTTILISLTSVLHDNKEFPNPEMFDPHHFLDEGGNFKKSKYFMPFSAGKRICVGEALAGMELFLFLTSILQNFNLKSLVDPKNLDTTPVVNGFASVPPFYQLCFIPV
CYP2B6, sequence (P20813 whole entry): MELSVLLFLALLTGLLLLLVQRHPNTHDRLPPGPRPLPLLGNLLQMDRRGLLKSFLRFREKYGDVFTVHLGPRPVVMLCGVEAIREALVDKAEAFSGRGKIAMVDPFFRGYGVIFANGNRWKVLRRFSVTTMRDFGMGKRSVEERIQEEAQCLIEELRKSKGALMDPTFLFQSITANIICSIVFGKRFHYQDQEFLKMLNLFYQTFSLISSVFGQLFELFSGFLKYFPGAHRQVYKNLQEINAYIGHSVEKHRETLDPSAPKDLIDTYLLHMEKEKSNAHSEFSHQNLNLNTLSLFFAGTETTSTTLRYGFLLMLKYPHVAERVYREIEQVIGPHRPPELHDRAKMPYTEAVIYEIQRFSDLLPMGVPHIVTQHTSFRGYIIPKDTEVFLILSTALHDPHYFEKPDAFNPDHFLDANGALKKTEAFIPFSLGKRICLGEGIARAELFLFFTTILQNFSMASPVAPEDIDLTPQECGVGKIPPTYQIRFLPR
CYP2C19, sequence (P33261 whole entry): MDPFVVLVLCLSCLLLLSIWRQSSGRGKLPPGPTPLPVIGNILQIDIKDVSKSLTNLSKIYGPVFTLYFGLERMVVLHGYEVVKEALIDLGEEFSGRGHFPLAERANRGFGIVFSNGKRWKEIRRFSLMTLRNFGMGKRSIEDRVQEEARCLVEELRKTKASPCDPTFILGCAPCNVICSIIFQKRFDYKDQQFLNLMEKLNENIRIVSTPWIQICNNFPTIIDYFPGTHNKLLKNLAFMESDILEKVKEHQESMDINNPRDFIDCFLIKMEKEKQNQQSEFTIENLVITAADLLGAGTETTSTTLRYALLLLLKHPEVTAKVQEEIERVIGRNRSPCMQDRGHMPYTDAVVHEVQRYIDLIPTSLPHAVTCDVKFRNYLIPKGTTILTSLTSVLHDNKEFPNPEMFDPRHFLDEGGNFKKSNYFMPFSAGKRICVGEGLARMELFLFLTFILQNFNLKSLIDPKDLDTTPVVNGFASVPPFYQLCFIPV
CYP1A2, sequence (P05177 whole entry): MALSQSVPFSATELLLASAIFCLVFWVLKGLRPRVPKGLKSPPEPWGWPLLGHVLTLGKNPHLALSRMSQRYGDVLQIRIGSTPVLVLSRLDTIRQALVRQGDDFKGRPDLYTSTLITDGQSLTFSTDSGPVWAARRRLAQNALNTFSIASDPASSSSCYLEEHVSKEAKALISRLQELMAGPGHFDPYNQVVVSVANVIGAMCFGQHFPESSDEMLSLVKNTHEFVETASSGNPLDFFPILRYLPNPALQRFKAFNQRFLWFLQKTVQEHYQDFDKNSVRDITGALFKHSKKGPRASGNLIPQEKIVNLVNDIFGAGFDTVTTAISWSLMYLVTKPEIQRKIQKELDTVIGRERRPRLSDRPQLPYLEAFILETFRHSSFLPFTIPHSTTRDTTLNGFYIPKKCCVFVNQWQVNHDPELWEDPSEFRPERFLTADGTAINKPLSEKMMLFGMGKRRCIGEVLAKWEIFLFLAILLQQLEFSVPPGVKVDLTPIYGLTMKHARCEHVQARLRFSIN
CYP2C8, sequence (P10632 whole entry): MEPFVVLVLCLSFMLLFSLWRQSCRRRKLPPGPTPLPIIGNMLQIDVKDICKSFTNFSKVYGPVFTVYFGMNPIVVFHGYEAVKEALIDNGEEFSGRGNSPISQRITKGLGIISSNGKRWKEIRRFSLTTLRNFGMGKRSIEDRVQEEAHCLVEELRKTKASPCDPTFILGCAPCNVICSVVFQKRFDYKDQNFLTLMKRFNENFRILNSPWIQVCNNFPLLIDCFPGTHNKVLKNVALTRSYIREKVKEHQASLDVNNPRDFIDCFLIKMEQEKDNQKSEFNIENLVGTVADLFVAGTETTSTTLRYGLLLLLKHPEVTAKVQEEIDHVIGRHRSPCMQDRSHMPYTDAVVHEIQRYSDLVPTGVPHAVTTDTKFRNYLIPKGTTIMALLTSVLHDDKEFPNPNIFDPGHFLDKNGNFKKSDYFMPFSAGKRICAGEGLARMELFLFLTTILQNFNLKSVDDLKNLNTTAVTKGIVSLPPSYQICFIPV
CYP2D6, sequence (P10635 whole entry): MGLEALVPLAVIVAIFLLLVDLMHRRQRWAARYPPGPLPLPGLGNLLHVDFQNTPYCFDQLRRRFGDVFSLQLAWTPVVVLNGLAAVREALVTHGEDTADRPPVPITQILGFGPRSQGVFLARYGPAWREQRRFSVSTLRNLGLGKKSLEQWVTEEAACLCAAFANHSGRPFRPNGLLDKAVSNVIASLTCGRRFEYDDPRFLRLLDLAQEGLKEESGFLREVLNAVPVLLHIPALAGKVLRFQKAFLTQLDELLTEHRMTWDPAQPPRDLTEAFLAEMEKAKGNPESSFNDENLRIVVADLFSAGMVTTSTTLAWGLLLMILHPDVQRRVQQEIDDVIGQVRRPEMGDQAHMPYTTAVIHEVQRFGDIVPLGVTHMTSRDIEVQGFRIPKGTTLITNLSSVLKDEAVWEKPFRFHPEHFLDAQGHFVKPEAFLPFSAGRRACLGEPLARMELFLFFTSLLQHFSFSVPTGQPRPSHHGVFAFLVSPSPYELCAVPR

- half-life [1]: 21.1 h
- half-life [2]: 4.09 h
- response vs control in vivo at 30 mg/kg (serum DPP-IV; 2 h): 8.4%
- response vs control in vivo at 30 mg/kg (serum DPP-IV; 4 h): 7.4%
- response vs control in vivo at 30 mg/kg (serum DPP-IV; 10 h): 9.1%
- response vs control in vivo at 30 mg/kg (serum DPP-IV; 24 h): 15.6%
- response vs control in vivo at 30 mg/kg (serum DPP-IV; 34 h): 20.2%
- response vs control in vivo at 30 mg/kg (serum DPP-IV; 48 h): 45.5%
- response vs control in vivo at 30 mg/kg (serum DPP-IV; 58 h): 41.2%
- response vs control in vivo at 30 mg/kg (serum DPP-IV; 72 h): 58.4%
- response vs control in vivo at 30 mg/kg (serum DPP-IV; 96 h): 68%
- inhibition at 30 mg/kg (serum DPP-IV; read-out: inhibitory rate of serum DPP-IV activity in mice): > 70%
SMILES: CS(=O)(=O)n1cc2c(n1)CN([C@H]1CO[C@H](c3cc(F)ccc3F)[C@@H](N)C1)C2 [Omarigliptin]

- AUC(0-inf) [3]: 45600 ng·h/mL
- Cmax [3]: 4390 ng/mL
- Tmax [3]: 1.67 h
- half-life [3]: 17.1 h
- IC50 (CYP1A2): > 25 µM
- IC50 (CYP2B6): > 25 µM
- IC50 (CYP2C19): > 25 µM
- IC50 (CYP2C8): > 25 µM
- IC50 (CYP2C9): > 25 µM
- IC50 (CYP3A4; substrate Midazolam, read-out: IC50 in inhibiting CYP Enzyme System 3A4_Mid): > 25 µM
- IC50 (CYP3A4; substrate Testosterone, read-out: IC50 in inhibiting CYP Enzyme System 3A4_Tes): > 25 µM
- IC50 (CYP2D6): > 25 µM
- half-life [1]: 8.26 h
- half-life [2]: 4.52 h
SMILES: CS(=O)(=O)c1ccc2c(c1)CN([C@H]1CO[C@H](c3cc(F)ccc3F)[C@@H](N)C1)C2 [Example 4, (2R,3S,5R)-5-(5-methylsulfonylisoindolin-2-yl)-2-(2,5-difluorophenyl)tetrahydro-2H-pyran-3-amine]

- AUC(0-inf) [3]: 52200 ng·h/mL
- Cmax [3]: 5960 ng/mL
- Tmax [3]: 2 h
- half-life [3]: 32.5 h
SMILES: N[C@H]1C[C@@H](N2Cc3ccc(S(=O)(=O)C4CC4)cc3C2)CO[C@@H]1c1cc(F)ccc1F [Example 9, (2R,3S,5R)-5-(5-cyclopropylsulfonylisoindolin-2-yl)-2-(2,5-difluorophenyl) tetrahydro-2H-pyran-3-amine]
